Here are results for 14 molecules from patent US10307425B2, “Compositions and methods for treating toxoplasmosis, cryptosporidiosis and other apicomplexan protozoan related diseases” (UNIVERSITY OF WASHINGTON, priority 2015, dated 2019).

Each structure is given as a SMILES string.

As a reminder, the IC50 is the concentration needed to halve the response being measured.

For this test, the target named is TgCDPK1 (Toxoplasma gondii, UniProt Q9BJF5). The test is described as follows: biochemical.
Chain of TgCDPK1 (Q9BJF5 1-507): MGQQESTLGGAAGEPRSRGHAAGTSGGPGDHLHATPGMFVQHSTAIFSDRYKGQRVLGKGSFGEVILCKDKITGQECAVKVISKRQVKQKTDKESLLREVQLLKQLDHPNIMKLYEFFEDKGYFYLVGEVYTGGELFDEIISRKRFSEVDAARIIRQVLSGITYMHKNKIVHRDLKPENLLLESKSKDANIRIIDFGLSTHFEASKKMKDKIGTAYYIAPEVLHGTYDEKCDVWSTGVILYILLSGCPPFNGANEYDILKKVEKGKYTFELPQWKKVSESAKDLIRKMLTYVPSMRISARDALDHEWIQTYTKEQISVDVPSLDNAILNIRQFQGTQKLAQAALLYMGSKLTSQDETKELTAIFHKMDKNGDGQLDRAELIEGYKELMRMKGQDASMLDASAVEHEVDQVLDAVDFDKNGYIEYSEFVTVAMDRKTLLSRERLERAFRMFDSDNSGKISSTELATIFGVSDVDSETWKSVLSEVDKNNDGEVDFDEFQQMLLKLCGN
As to `CC(C)(CO)Cn1nc(-c2ccc3nc(OCC(F)(F)F)ccc3c2)c2c(N)ncnc21` [Example 2, 3-(4-Amino-3-(2-(2,2,2-trifluoroethoxy)quinolin-6-yl)-1H-pyrazolo[3,4-d]pyrimidin-1-yl)-2,2-dimethylpropan-1-ol], the IC50 is 17.2 nM. To `CC(C)Cn1nc(-c2ccc3cc(OC4CC4)ccc3c2)c2c(N)ncnc21` [Example 9, 3-(6-cyclopropoxynaphthalen-2-yl)-1-isobutyl-1H-pyrazolo[3,4-d]pyrimidin-4-amine] belongs 6 nM. Consider `CN1CCC(Cn2nc(-c3ccc4cc(OC5COC5)ccc4c3)c3c(N)ncnc32)CC1` [Example 12, 1-((1-Methylpiperidin-4-yl)methyl)-3-(6-(oxetan-3-yloxy)naphthalen-2-yl)-1H-pyrazolo[3,4-d]pyrimidin-4-amine], for which the IC50 turned out to be 10.7 nM.

In turn, `Nc1ncnc2c1c(-c1ccc3cc(OCC4CC4)ccc3c1)nn2CC1CCOCC1` [Example 29, 3-(6-(cyclopropylmethoxy)naphthalen-2-yl)-1-((tetrahydro-2H-pyran-4-yl)methyl)-1H-pyrazolo[3,4-d]pyrimidin-4-amine] returned a half-maximal inhibitory concentration (IC50) of 4.8 nM.

Take `Nc1ncnc2c1c(-c1ccc3cc(OC4CCC4)ccc3c1)nn2CC1CCOCC1` [Example 30, 3-(6-cyclobutoxynaphthalen-2-yl)-1-((tetrahydro-2H-pyran-4-yl)methyl)-1H-pyrazolo[3,4-d]pyrimidin-4-amine]: the IC50 turned out to be 2.6 nM. This IC50 lies about 1.8-fold lower than the previous one.

Regarding `Nc1ncnc2c1c(-c1ccc3cc(OC4COC4)ccc3c1)nn2CC1CCOCC1` [Example 31, 3-(6-(oxetan-3-yloxy)naphthalen-2-yl)-1-((tetrahydro-2H-pyran-4-yl)methyl)-1H-pyrazolo[3,4-d]pyrimidin-4-amine], the 50% inhibitory concentration (IC50) stood at 35.8 nM. Take `CCOc1ccc2cc(-c3nn(CC(C)(C)CO)c4ncnc(N)c34)ccc2c1` [Example 32, 3-(4-amino-3-(6-ethoxynaphthalen-2-yl)-1H-pyrazolo[3,4-d]pyrimidin-1-yl)-2,2-dimethylpropan-1-ol]: the IC50 was 1.2 nM. `CC(C)Cn1nc(-c2ccc3cc(OCCO)ccc3c2)c2c(N)ncnc21` [Example 34, 2-(6-(4-amino-1-isobutyl-1H-pyrazolo[3,4-d]pyrimidin-3-yl)naphthalen-2-yloxy)ethanol] showed a half-inhibitory concentration (IC50) of 5.8 nM. This IC50 is about 4.8-fold higher than that of the molecule before. To `CC(C)Cn1nc(-c2ccc3cc(OC4COC4)ccc3c2)c2c(N)ncnc21` [Example 35, 1-isobutyl-3-(6-(oxetan-3-yloxy)naphthalen-2-yl)-1H-pyrazolo[3,4-d]pyrimidin-4-amine] belongs 4 nM; to `COCCOc1ccc2cc(-c3nn(CC(C)C)c4ncnc(N)c34)ccc2c1` [Example 36, 1-isobutyl-3-(6-(2-methoxyethoxy)naphthalen-2-yl)-1H-pyrazolo[3,4-d]pyrimidin-4-amine], 1.7 nM; to `CCOc1ccc2cc(-c3nn(CC(C)(C)CO)c4ncnc(N)c34)ccc2n1` [Example 37, 3-(4-amino-3-(2-ethoxyquinolin-6-yl)-1H-pyrazolo[3,4-d]pyrimidin-1-yl)-2,2-dimethylpropan-1-ol], 1.7 nM. With `COCCOc1ccc2cc(-c3nn(CC(C)(C)C)c4ncnc(N)c34)ccc2n1` [Example 38, 3-(2-(2-methoxyethoxy)quinolin-6-yl)-1-neopentyl-1H-pyrazolo[3,4-d]pyrimidin-4-amine] the figure was 3.8 nM; with `Nc1ncnc2c1c(-c1ccc3nc(OC4CC4)ccc3c1)nn2CC1CCNCC1` [Example 39, 3-(2-cyclopropoxyquinolin-6-yl)-1-(piperidin-4-ylmethyl)-1H-pyrazolo[3,4-d]pyrimidin-4-amine], 1 nM; with `Nc1ncnc2c1c(-c1ccc3nc(OC4CC4)ccc3c1)nn2CC1CNC1` [Example 40, 1-(azetidin-3-ylmethyl)-3-(2-cyclopropoxyquinolin-6-yl)-1H-pyrazolo[3,4-d]pyrimidin-4-amine], 2.3 nM.
